Results from ChEMBL document CHEMBL3046045, “Synthesis of 7-methoxyapigeninidin and its fungicidal activity against Gloeocercospora sorghi” (1996).
Calls of active or inactive are those of the source. The rule behind the calls is not given here.

Columns and labels:
Pyricularia oryzae [1] = assay: Antifungal activity against Magnaporthe oryzae assessed as radial growth inhibition at 100 ppm; format: functional, organism-based
Pyricularia oryzae [2] = assay: Antifungal activity against Magnaporthe oryzae assessed as inhibition of spore germination; format: functional
Microdochium sorghi [3] = assay: Antifungal activity against Gloeocercospora sorghi in potato dextrose agar medium assessed as inhibition of radial growth; format: functional
Microdochium sorghi [4] = assay: Antifungal activity against Gloeocercospora sorghi in potato dextrose agar medium assessed as inhibition of radial growth at 100 ppm; format: functional
Pyricularia oryzae [5] = assay: Antifungal activity against Magnaporthe oryzae assessed as inhibition of spore germination at 100 ppm; format: functional, organism-based

SMILES	inhibition (Pyricularia oryzae [1])	I50 (Pyricularia oryzae [2])	I50 (Microdochium sorghi [3])	inhibition at 100 ppm (Microdochium sorghi [4])	inhibition (Pyricularia oryzae [5])
COc1cc(O)c2ccc(-c3ccc(O)cc3)[o+]c2c1.[Cl-] [7-METHOXYAPIGENINIDIN]	inactive	50 ppm	50 ppm		
Oc1ccc(-c2ccc3c(O)cc(O)cc3[o+]2)cc1 [APIGENIDIN]	inactive			25%	inactive
